Source: article PMC10812672, “Short Antimicrobial Peptide Derived from the Venom Gland Transcriptome of Pamphobeteus verdolaga Increases Gentamicin Susceptibility of Multidrug-Resistant Klebsiella pneumoniae” (Antibiotics, 2023)

How the values were obtained:
[1] = tested on: multidrug-resistant (MDR) strain of K. pneumoniae, clinical isolate; experiment: microbe, parasite or virus in culture; type: cell-based, Klebsiella pneumoniae; conditions: for IC50 / MIC: Klebsiella pneumoniae; for MIC / Classification at 10^6 CFU/mL: MDR K. pneumoniae clinical isolate; for Classification at 10^6 CFU/mL: CLSI classification
Description: A multidrug-resistant (MDR) strain of K. pneumoniae was identified and isolated from a tertiary-level hospital in Medellin, Colombia, using the VITEK-2 system (bioMérieux, Marcy-l’Étoile, France). The MDR strain was evaluated against several antibiotics at concentrations of 1.56–100 μM. […] In contrast, the strain was susceptible to doxycycline (Supplementary Figure S7g) and chloramphenicol (Supplementary Figure S7h), with MICs of 50 μM and 100 µM, respectively (Table 3). […] All of P. verdolaga’s AMPs were evaluated against the clinical isolate at concentrations of 1.56–200 µM (Supplementary Figure S8). […] A growth inhibition kinetic assay was conducted. […] All of P. verdolaga’s peptides at 100 μM induced morphological changes in the MDR K. pneumoniae, indicating membrane interactions, even though no significant inhibition was observed (Supplementary Figure S9).
The evaluation of the antimicrobial activity of the peptides was conducted using the CLSI’s broth microdilution method for bacterial susceptibility testing. For the screening phase, peptides were evaluated at a single 30 μM concentration, in triplicate and in three independent assays, against the E. coli ATCC® 8739, E. coli ATCC® 25922, S. aureus ATCC® 6538, or S. aureus ATCC® 29213 reference USP and CLSI strains. For the determination of MIC, MBC, or IC50, peptides or antibiotics were evaluated in concentrations between 1.56–200 µM. These evaluations were conducted in triplicate and in three independent assays, against the E. coli ATCC® 25922, S. aureus ATCC® 29213, E. faecalis ATCC® 49532, P. aeruginosa ATCC® 9027, and K. pneumoniae ATCC® BAA-1705, or the clinically isolated MDR strain. In detail, 1 mL of a glycerol stock solution of the ATCC® or clinically isolated bacterial strain was added to 9 mL of Mueller-Hinton Broth and incubated for 18 h, 180 rpm and 37 °C (Incubator 1000, Heidolph Instruments, Schwabach, Germany). After the incubation, 1 mL of the previous solution was transferred to a new recipient containing 9 mL of fresh Mueller-Hinton broth and incubated for 4 h, 180 rpm and 37 °C (Incubator 1000, Heidolph Instruments, Schwabach, Germany). During the second incubation, the peptides or the antibiotics were dissolved in PBS pH 7.20 in concentrations between 19.53–2500 µM (MC5 Micro Balance, Sartorius AG, Göttingen, Germany). An amount of 10 µL of either peptide or antibiotic was dispensed in triplicate in 96-well flat bottom culture plates, along with 10 µL of PBS (Negative activity control), BTM-P1 (Positive activity control), or 10 µL of Mueller-Hinton broth (Blank); then, 110 µL of Mueller-Hinton broth was poured in all wells. Following this, the bacteria were suspended in Mueller-Hinton broth up to a concentration of approximately 1.50 × 10^8 CFU/mL, as measured by optical density at 600 nm between 0.06 to 0.11 (0.5 McFarland standard), in a Multiskan SkyHigh spectrophotometer (ThermoFisher Scientific, Waltham, MA, USA). Amounts of 5 µL of the 1.50 × 10^8 CFU/mL suspension were added to each well (except for the blank) for a final well concentration of approximately 6 × 10^6 CFU/mL. The plate was incubated for 24 h at 37 °C (BE 500, Memmert GmbH, Büchenbach, Germany) and optical density was measured at 600 nm in a Multiskan SkyHigh spectrophotometer (ThermoFisher Scientific, Waltham, MI, USA). Following the measurement of optical density, plates were visually inspected to determine the MIC. Subsequently, 100 µL of the concentration associated to the MIC and 100 µL of the next higher concentration were added to Petri dishes containing Mueller-Hinton Agar. The dishes were then incubated for 24 h at 37 °C (BE 500, Memmert GmbH, Büchenbach, Germany). After incubation, the Petri dishes were visually inspected, and the MBC was determined in the absence of growth. IC50 values were interpolated from regressions with correlation values above 0.70. […]

E. coli = conditions: custom database compiled from public databases and PubMed; averaged where multiple reports; cited from earlier work
Description: (§1) Agelaia-CP Agelaia pallipes […] […] 13 1 4.00 1.25 s IsCT [EK7. GP8. Opisthacanthus SK11] madagascariensi […] 13 4 2.00 1.17 s Opisthacanthus IsCT [EK7] madagascariensi […] 13 3 2.00 1.00 s Opisthacanthus IsCT [WL6. SK11 ] madagascariensi ILGKILKGIKKLF 13 4 2.00 2.00 s Opisthacanth ... || (+ 2 further places)

S. aureus = conditions: custom database compiled from public databases and PubMed; averaged where multiple reports; cited from earlier work
Description: as §1

[2] = 24 h, peptides 1.56–200 µM, antibiotics 1.56–100 µM, 24 h 37 °C

## O=C(N[C@H](CO)[C@H](O)c1ccc([N+](=O)[O-])cc1)C(Cl)Cl [Chloramphenicol, chloramphenicol]
[1]
  IC50: 56.2 µM
  MIC: 4.04 µg/mL
  Classification at 10^6 CFU/mL: Susceptible
[1]; [2]
  MIC: 100 µM

## C[C@H]1c2cccc(O)c2C(=O)C2=C(O)[C@]3(O)C(=O)C(C(N)=O)=C(O)[C@@H](N(C)C)[C@@H]3[C@@H](O)[C@@H]21 [Doxycycline, doxycycline]
[1]
  IC50: 38.1 µM
  MIC: 3.21 µg/mL
  Classification at 10^6 CFU/mL: Susceptible
[1]; [2]
  MIC: 50 µM

## ACHAHCQSVGRRGGYCGNFRMTCYCY [Midgut defensin G2, cDB AMP; Haemaphysalis longicornis]
E. coli
  MIC E. coli: 5.94 µM
S. aureus
  MIC S. aureus: 5.09 µM

## ACQFWSCNSSCISRGYRQGYCWGIQYKYCQCQ [Defensin-1, cDB AMP; Centruroides limpidus limpidus]
E. coli
  MIC E. coli: 13.08 µM
S. aureus
  MIC S. aureus: 13.08 µM

## CRRLCYKQRCVTYCRGR [Gomesin, cDB AMP; Acanthoscurria gomesiana]
E. coli
  MIC E. coli: 0.80 µM
S. aureus
  MIC S. aureus: 12.10 µM

## FFGSLLSLGSKLLPSVFKLFQRKKE [Css54, cDB AMP; Centruroides suffusus suffusus]
E. coli
  MIC E. coli: 4.35 µM
S. aureus
  MIC S. aureus: 4.35 µM

## FIGAIARLLSKIFGKR [Bmkn2, cDB AMP; Mesobuthus martensii]
E. coli
  MIC E. coli: 1.50 µM
S. aureus
  MIC S. aureus: 0.60 µM

## FLFKLIPKAIKGLIKAFK [AcrAP1a [S4K.H8K.S11K.S15K]] [cDB AMP; Androctonus crassicauda]
E. coli
  MIC E. coli: 8.00 µM
S. aureus
  MIC S. aureus: 4.00 µM

## FLFKLIPKAIKGLIKAFK [AcrAP1a, cDB AMP; Androctonus crassicauda]
E. coli
  MIC E. coli: 4 µM
S. aureus
  MIC S. aureus: 8 µM

## FLFKLIPKAIKGLLKAFK [AcrAP2 [S4K.N8K.S11K.S15K], cDB AMP; Androctonus crassicauda]
E. coli
  MIC E. coli: 8.00 µM
S. aureus
  MIC S. aureus: 4.00 µM

## FLFKLIPKAIKGLVKAIRK [AaeAP2 [S4.8.15K; A11K. N19K], cDB AMP; Androctonus aeneas]
E. coli
  MIC E. coli: 10.99 µM
S. aureus
  MIC S. aureus: 8.24 µM

## FLFKLIPKAIKKLISKFK [AamAP1 [S4K.H8K.G11.12K.A16K], cDB AMP; Androctonus amoreuxi]
E. coli
  MIC E. coli: 7.50 µM
S. aureus
  MIC S. aureus: 5.00 µM

## FLFKLIPKVIKGLVKAIRK [AaeAP1 [S4.8.15K; A11K. N19K], cDB AMP; Androctonus aeneas]
E. coli
  MIC E. coli: 10.85 µM
S. aureus
  MIC S. aureus: 8.14 µM

## FLFSLIPSAISGLISAFKGRR [Marmelittin, cDB AMP; Mesobuthus martensii]
E. coli
  MIC E. coli: 6.21 µM
S. aureus
  MIC S. aureus: 6.48 µM

## FLGSLFSIGSKLLPGVIKLFQRKKQ [Im-5, cDB AMP; Isometrus maculatus]
E. coli
  MIC E. coli: 10.00 µM
S. aureus
  MIC S. aureus: 3.75 µM

## FWGALAKGALKLIGSLFSSFSKKD [Pandinin-2 [P14G], cDB AMP; Pandinus imperator]
E. coli
  MIC E. coli: 12.50 µM
S. aureus
  MIC S. aureus: 12.50 µM

## GFGMALKLLKKVL [Macropin 1, cDB AMP; Macropis fulvipes]
E. coli
  MIC E. coli: 3.00 µM
S. aureus
  MIC S. aureus: 3.70 µM

## GFLSILKKVLPKVMAHMK [Melectin, cDB AMP; Melecta albifrons]
E. coli
  MIC E. coli: 10.37 µM
S. aureus
  MIC S. aureus: 12.80 µM

## GLHKVMREVLGYERNSYKKFFLR [Ixosin, cDB AMP; Ixodes sinensis]
E. coli
  MIC E. coli: 10.45 µM
S. aureus
  MIC S. aureus: 1.29 µM

## GLLSKFGRLARKLARVIPKV [Pilosulin-2, cDB AMP; Myrmecia pilosula]
E. coli
  MIC E. coli: 1.33 µM
S. aureus
  MIC S. aureus: 4.00 µM

## GMASLLAKVLPHVVKLIK [Codesane, cDB AMP; Colletes daviesanus]
E. coli
  MIC E. coli: 3.70 µM
S. aureus
  MIC S. aureus: 3.70 µM

## GMWSKILGHLIR [HAL-1, cDB AMP; Halictus sexcinctus]
E. coli
  MIC E. coli: 3.80 µM
S. aureus
  MIC S. aureus: 7.70 µM

## ILGKIWKIKKLF [IsCT precursor, cDB AMP; Opisthacanthus madagascariensis]
E. coli
  MIC E. coli: 2.00 µM
S. aureus
  MIC S. aureus: 2.00 µM

## ILKKIWKPIKKLF [IsCT-P, cDB AMP; Opisthacanthus madagascariensis]
E. coli
  MIC E. coli: 2.00 µM
S. aureus
  MIC S. aureus: 1.00 µM

## INLKAIAALAKKLLG [Mastoparan-like peptide 12c, cDB AMP; Vespa magnifica]
E. coli
  MIC E. coli: 3.90 µM
S. aureus
  MIC S. aureus: 1.95 µM

## LKWGAILKHIIK [PNG-1/3, cDB AMP; Panurgus calcaratus]
E. coli
  MIC E. coli: 3.70 µM
S. aureus
  MIC S. aureus: 11.70 µM

## LNWGAILKHIIK [PNG-1, cDB AMP; Panurgus calcaratus]
E. coli
  MIC E. coli: 3.70 µM
S. aureus
  MIC S. aureus: 10.60 µM

## LNWGAILKKIIK [PNG-1/9, cDB AMP; Panurgus calcaratus]
E. coli
  MIC E. coli: 4.30 µM
S. aureus
  MIC S. aureus: 7.30 µM

## LNWGALLKHLLK [PNG-1/19, cDB AMP; Panurgus calcaratus]
E. coli
  MIC E. coli: 3.80 µM
S. aureus
  MIC S. aureus: 6.70 µM

## LNWGKILKHIIK [PNG-1/6, cDB AMP; Panurgus calcaratus]
E. coli
  MIC E. coli: 4.00 µM
S. aureus
  MIC S. aureus: 8.70 µM

## LNWKAILKHIIK [PNG-1/5, cDB AMP; Panurgus calcaratus]
E. coli
  MIC E. coli: 2.30 µM
S. aureus
  MIC S. aureus: 5.30 µM

## PFKLSLHL [Jellein-1, cDB AMP; Apis mellifera]
E. coli
  MIC E. coli: 2.62 µM
S. aureus
  MIC S. aureus: 10.48 µM

## QCRRLCYKQRCVTYCRGR [Gomesin c(1-18)[Gln1], cDB AMP; Acanthoscurria gomesiana]
E. coli
  MIC E. coli: 0.48 µM
S. aureus
  MIC S. aureus: 1.44 µM

## RRWCFRVCYKGFCYRKCR [Polyphemusin-2, cDB AMP; Limulus polyphemus]
E. coli
  MIC E. coli: 3.87 µM
S. aureus
  MIC S. aureus: 5.14 µM

## RRWCFRVCYRGFCYRKCR [Polyphemusin-1, cDB AMP; Limulus polyphemus]
E. coli
  MIC E. coli: 0.9 µM
S. aureus
  MIC S. aureus: 0.3 µM

## SIGRRGGYCAGIIKQTCTCYR [Longicin (53-73), cDB AMP; Haemaphysalis longicornis]
E. coli
  MIC E. coli: 2.00 µM
S. aureus
  MIC S. aureus: 2.00 µM

## VNWKKILGKIIKVAK [Lasioglossin LL-II, cDB AMP; Lasioglossum laticeps]
E. coli
  MIC E. coli: 1.40 µM
S. aureus
  MIC S. aureus: 9.00 µM

## VNWKKILGKIIKVVK [Lasioglossin LL-III, cDB AMP; Lasioglossum laticeps]
E. coli
  MIC E. coli: 1.40 µM
S. aureus
  MIC S. aureus: 3.90 µM

## VNWKKVLGKIIKVAK [Lasioglossin LL-I, cDB AMP; Lasioglossum laticeps]
E. coli
  MIC E. coli: 1.70 µM
S. aureus
  MIC S. aureus: 14.3 µM

## VWLSALKFIGKHLAKHQLSKL [Lycosin-II, cDB AMP; Lycosa singoriensis]
E. coli
  MIC E. coli: 12.50 µM
S. aureus
  MIC S. aureus: 3.10 µM
